The values below come from patent publication US12577216B2, “Triazine benzoate compound and application thereof” (SHENYANG SINOCHEM AGROCHEMICALS R&D CO., LTD., priority 2020, dated 2026).

For one experiment, the system named is piemarker. Briefly: Determination of herbicidal activity, post-emergence stem and leaf spray, piemarker. Conditions: for Herbicidal activity for Piemarker, control effect %: Table 4 parallel comparison. Format: in vivo. Here is the method:
(§1) Seeds of broadleaf weeds (zinnia and piemarker) or grassy weeds (green bristlegrass and barnyard grass) were respectively sown in a paper cup having a diameter of 7 cm and containing nutrient soil; after sowing, the seeds were covered with 1 cm of soil; the soil was pressed and watered, and then the seeds were cultivated in a greenhouse according to a conventional method; and stems and leaves were sprayed after 2-3 leaf stage of the weeds.
(§2) After the original medicinal acetone was dissolved, the test requires to use 1‰ of Tween 80 to stand in running water to prepare the solution to be tested with a required concentration. According to the design dose of the test, spray treatment was carried out on a track-type crop sprayer (designed and produced by British Engineer Research Ltd.) (spray pressure is 1.95 kg/cm^2, spray volume is 500 L/hm^2 and track speed is 1.48 km/h). The test was repeated for three times. The test material was treated and then placed in an operation hall. The medicinal liquid was naturally dried in the shade, and then was placed in a greenhouse and managed according to the conventional method. The response of the weeds to the drug was observed and recorded. After treatment, the control effects of the test drug on the weeds were visually inspected regularly, expressed by 0-100%. “0” represents no control effect and “100%” represents complete killing.

The next experiment relates to green bristlegrass. The experiment in a line: Determination of herbicidal activity, post-emergence stem and leaf spray, green bristlegrass. Format: in vivo. Conditions: for Herbicidal activity for Green Bristlegrass, control effect %: Table 5 parallel comparison. The procedure:
as §1, §2

Another experiment deals with barnyard grass. Briefly: Determination of herbicidal activity, post-emergence stem and leaf spray, barnyard grass. Type of experiment: in vivo. Conditions: for Herbicidal activity for Barnyard Grass, control effect %: Table 6 parallel comparison. The procedure: as §1, §2
The test system of a further experiment is zinnia. The experiment in a line: Determination of herbicidal activity, post-emergence stem and leaf spray, zinnia. Type of experiment: in vivo. Conditions: for Herbicidal activity for Zinnia, control effect %: Table 3 parallel comparison. Here is the method:
as §1, §2

For experiment [1], the system named is Commelina benghalensis Linn. Conditions: postemergence application, doses of 7.81 and 3.91 g/ha; cited from earlier work.
Another experiment deals with Amaranthus retroflexus. The note with it: postemergence application, doses of 7.81 and 3.91 g/ha; cited from earlier work.
The subject of the next experiment is Chenopodium album L. Conditions: postemergence application, doses of 7.81 and 3.91 g/ha; cited from earlier work.
In another experiment the test system is Setaria faberi. The note with it: postemergence application, doses of 7.81 and 3.91 g/ha; cited from earlier work.
Where [2] appears, read: 150 g a.i./hm^2, after emergence, visual 0-100%.
Setting [3] is: Table 2, 9.375 g a.i./hm^2, after emergence.
[4] abbreviates: Table 2, 37.5 g a.i./hm^2, after emergence.
Where [5] appears, read: 2.34 g a.i./hm^2, after emergence.
Setting [6] is: 9.375 g a.i./hm^2, after emergence.
The mark [7] stands for this setting: 37.5 g a.i./hm^2, after emergence.

On to `CCOC(=O)[C@H](C)OC(=O)c1cc(-n2c(=O)n(C)c(=S)n(C)c2=O)c(F)cc1Cl` [Compound 250], for which the “control effects on piemarker” value with piemarker (setting [2]) amounted to 100%. Also, the “Piemarker, control effect %” value in the experiment on piemarker (setting [3]) is given as 98%; in the experiment on piemarker (setting [4]), 100%. The “Herbicidal activity for Piemarker, control effect %” value with piemarker (setting [5]) is recorded as 85%; in the experiment on piemarker (setting [6]), 100%. For the same compound, the “Green Bristlegrass, control effect %” value in the experiment with green bristlegrass (setting [3]) and with green bristlegrass (setting [4]) was 100% throughout. The “Herbicidal activity for Green Bristlegrass, control effect %” value stood at 70% with green bristlegrass (setting [6]) and 90% in the experiment with green bristlegrass (setting [7]). The results for the “Barnyard Grass, control effect %” value in the experiment on barnyard grass (setting [3]) and in the experiment on barnyard grass (setting [4]) were 50% and 90%, respectively. Besides, the figures for the “Herbicidal activity for Barnyard Grass, control effect %” value in the experiment with barnyard grass (setting [6]) and in the experiment on barnyard grass (setting [7]) were 90% and 100%, respectively. For the same compound, the “control effects on zinnia” value in the experiment with zinnia (setting [2]) amounted to 100%. Moreover, the “Zinnia, control effect %” value was determined as 70% in the experiment with zinnia (setting [3]) and 98% with zinnia (setting [4]). For the same compound, the “Herbicidal activity for Zinnia, control effect %” value with zinnia (setting [5]) is 80%; in the experiment with zinnia (setting [6]), 95%.

Turning to `C=CCOC(=O)c1cc(-n2c(=O)n(C)c(=S)n(C)c2=O)c(F)cc1Cl` [KC1, reference compound], the “control of Commelina benghalensis Linn.” value in experiment [1] is “effectively control”. Besides, the “Piemarker, control effect %” value was 55% with piemarker (setting [3]) and 100% with piemarker (setting [4]). Further, the “Herbicidal activity for Piemarker, control effect %” value in the experiment on piemarker (setting [6]) is given as 55%. Also, the “control of Amaranthus retroflexus” value in the experiment with Amaranthus retroflexus is reported as “effectively control”. Further, the “control of Chenopodium album L.” value with Chenopodium album L. was “effectively control”. Also, the “Green Bristlegrass, control effect %” value with green bristlegrass (setting [3]) turned out to be 10%; with green bristlegrass (setting [4]), 25%. Moreover, the “Herbicidal activity for Green Bristlegrass, control effect %” value in the experiment with green bristlegrass (setting [6]) is 10%; in the experiment on green bristlegrass (setting [7]), 25%. In addition, the “control of Setaria faberi” value in the experiment with Setaria faberi was “effectively control”. The “Barnyard Grass, control effect %” value amounted to 0% in the experiment on barnyard grass (setting [3]) and 25% in the experiment with barnyard grass (setting [4]). Moreover, the results for the “Herbicidal activity for Barnyard Grass, control effect %” value with barnyard grass (setting [6]) and in the experiment on barnyard grass (setting [7]) were 0% and 25%, respectively. Also, the “Zinnia, control effect %” value with zinnia (setting [3]) amounted to 50%; with zinnia (setting [4]), 60%. Also, the “Herbicidal activity for Zinnia, control effect %” value in the experiment with zinnia (setting [6]) is 50%.
